The subject of assay [1] is 16-hour salivary biofilm on pellicle coated hydroxyapatite pegs. Description: Prevention assay: prevention of bacterial attachment to pellicle coated hydroxyapatite pegs, ATP bioluminescence. The format is cell-based. Conditions: for prevention of bacterial attachment in alcohol free full formulations: Table 15 formulations, water as the only solvent; for prevention of bacterial attachment in alcohol-free full formulations: Table 17 formulations, water and propylene glycol as solvents; for ability to prevent bacterial attachment / preventing bacterial attachment the best: simple solution solvent base formulas (Table 11). Here is the method:
The formulations in Examples 2-4, 6, 8 and 9 were prepared and test for prevention of bacterial attachment using the prevention assay. In this assay hydroxyapatite-coated polystyrene peg plate (96 pegs, N=8 per group) was exposed to saliva for one minute to form a pellicle at a temperature of 35 C. Then, for each formulation, eight pegs (N=8) were pre-treated for ten minutes with the formulation using an orbital shaker set to 500 RPM at room temperature. As a negative control, eight pegs (N=8) were pre-treated for ten minutes with sterile water. Next, a 16-hour salivary biofilm was grown on these polystyrene peg plates at a temperature of 35 C.
After all treatments were complete, the biofilm from each peg was neutralized and rinsed. The biofilm was harvested via sonication using a Q-Sonica Q700 Ultrasonic Liquid Processor with 431MP4-00 microplate horn Damper and 0.5:1 reverse gain booster (Q-Sonica, Newtown, Conn.). Using a Celsis Rapid Detection RapiScreen kit (Celsis International PLC, Chicago, Ill.), the bacteria were lysed with Celsis Luminex and then the adenosine triphosphate (ATP) from the lysed bacteria was measured using the bioluminescence marker Celcis Luminate and a Centro LB 960 Microplate Luminometer supplied by Berthold Technologies (Wildbad, Germany). Data were reported in log RLU (relative light units) where decreasing log RLUs indicated fewer viable bacteria remained on the biofilm substrate. The log RLUs for the prevention assay are shown on Tables 2, 4, 6, 10, 14, and 16.

The next assay relates to S. mutans biofilm. The assay can be described thus: S. mutans single species kill assay (in-vitro biofilm model). The format is cell-based. Conditions: simple solution formulas (Table 13), 30 second treatment. Here is the method:
The formulations listed in Example 7 were prepared and tested using an in-vitro single species S. mutans biofilm model. A 24-hour S. mutans biofilm is grown on a polystyrene peg plate (96 pegs, N=6 per test group). The pegs were subsequently treated for thirty seconds with each of formulations H and I, as well as positive and negative controls. The treatment is applied as a single thirty (30) second treatment. The positive control is a commercially available essential oil mouth rinse. The negative control is sterile water. After treatment the biofilm is neutralized and rinsed. The biofilm is harvested via sonication using a Misonix Ultrasonic Liquid Processor (Farmingdale, N.Y.). Using a Celsis Rapid Detection RapiScreen kit (Celsis International PLC, Chicago), the bacteria are lysed with Celsis Luminex and then the adenosine triphosphate (ATP) from the lysed bacteria is measured using the bioluminescence marker LB960 Microplate Luminometer supplied by Berthold (Wildbad, Germany). Data are reported in log RLU (relative light units) where decreasing log RLUs indicates fewer viable bacteria remaining on the biofilm substrate.

Take `CCCCCCCC(=O)NC(CCCNC(=N)N)C(=O)NC` (centres unmarked) [Compound 1, [amino({[4-(methylcarbamoyl)-4-octanamidobutyl]amino})methylidene]azanium]: in assay [1], the “prevention of bacterial attachment in alcohol free full formulations” value (shortened to “prevention … in alcohol free full formulations”) was “Prevent Bacterial Attachment”, the “prevention of bacterial attachment in alcohol-free full formulations” value (from here on “prevention … in alcohol-free full formulations”) is recorded as “Prevent Bacterial Attachment”, the “ability to prevent bacterial attachment” value was “have the ability to prevent bacterial attachment” and the “preventing bacterial attachment the best” value is recorded as “preventing bacterial attachment the best”. Besides, the “log reduction in S. mutans” value in the assay with S. mutans biofilm is listed as “do not Result in More than a One Log Reduction in S. mutans”.

`CCCCCCCC(=O)NC(CCCNC(=N)N)C(=O)NCCCCCC` (centres unmarked) [Compound 3, [amino({[4-(hexylcarbamoyl)-4-octanamidobutyl]amino})methylidene]azanium]: in assay [1], the “prevention … in alcohol free full formulations” value is “Prevent Bacterial Attachment”, the “prevention … in alcohol-free full formulations” value is “Prevent Bacterial Attachment”, the “ability to prevent bacterial attachment” value is reported as “have the ability to prevent bacterial attachment” and the “preventing bacterial attachment the best” value is “preventing bacterial attachment the best”. Also, the “log reduction in S. mutans” value with S. mutans biofilm is given as “do not Result in More than a One Log Reduction in S. mutans”.

As to `CCCCCCCCCCCC(=O)NC(CCCNC(=N)N)C(=O)NC` (centres unmarked) [Compound 6], in assay [1], the “prevention … in alcohol free full formulations” value was “Prevent Bacterial Attachment”, the “prevention … in alcohol-free full formulations” value was “Prevent Bacterial Attachment”, the “ability to prevent bacterial attachment” value is given as “have the ability to prevent bacterial attachment” and the “preventing bacterial attachment the best” value is “preventing bacterial attachment the best”. For the same compound, the “log reduction in S. mutans” value in the assay with S. mutans biofilm is reported as “do not Result in More than a One Log Reduction in S. mutans”.

As to `CCCCCCCCCCCCCCCCCC(=O)NC(CCCNC(=N)N)C(=O)NC` (centres unmarked) [Compound 7], the “log reduction in S. mutans” value in the assay with S. mutans biofilm is “do not Result in More than a One Log Reduction in S. mutans”.

`CCCCCCCCCCCC(=O)NC(CCCCN)C(=O)NCC` (centres unmarked) [Compound 11, N-[5-amino-1-(ethylcarbamoyl)pentyl]dodecanamide]: in assay [1], the “prevention … in alcohol free full formulations” value is “Prevent Bacterial Attachment”, the “prevention … in alcohol-free full formulations” value is listed as “Prevent Bacterial Attachment” and the “ability to prevent bacterial attachment” value is “have the ability to prevent bacterial attachment”. For the same compound, the “log reduction in S. mutans” value in the assay with S. mutans biofilm was “do not Result in More than a One Log Reduction in S. mutans”.

As to `CCCCCCCCCCCC(=O)NC(CCCN)C(=O)NCC` (centres unmarked) [Compound 12, N-[4-amino-1-(ethylcarbamoyl)butyl]dodecanamide], in assay [1], the “prevention … in alcohol free full formulations” value is “Prevent Bacterial Attachment”, the “prevention … in alcohol-free full formulations” value was “Prevent Bacterial Attachment”, the “ability to prevent bacterial attachment” value is “have the ability to prevent bacterial attachment” and the “preventing bacterial attachment the best” value was “preventing bacterial attachment the best”. Further, in the assay with S. mutans biofilm, the “log reduction in S. mutans” value is “do not Result in More than a One Log Reduction in S. mutans”.

Regarding `CCCCCCCCCCCC(=O)NC(COP(=O)(O)O)C(=O)NCC` (centres unmarked) [Compound 16, 2-dodecanamido-3-(ethylamino)-3-oxopropyl dihydrogen phosphate], the “ability to prevent bacterial attachment” value in assay [1] is “have the ability to prevent bacterial attachment”.

Turning to `CCCCCCCCCCCC(=O)NC(CCCN)C(=O)NCCCCCC` (centres unmarked) [Compound 17, N-(5-amino-1-(hexylamino)-1-oxopentan-2-yl)dodecanamide], in assay [1], the “ability to prevent bacterial attachment” value is on record as “have the ability to prevent bacterial attachment” and the “preventing bacterial attachment the best” value was “preventing bacterial attachment the best”.

In the case of `CCCCCCCCCCCNC(=O)C(CCCN)NC(=O)CCCCCCC` (centres unmarked) [Compound 18, N-(5-amino-1-oxo-1-(undecylamino)pentan-2-yl)octanamide], in assay [1], the “ability to prevent bacterial attachment” value is “have the ability to prevent bacterial attachment” and the “preventing bacterial attachment the best” value was “preventing bacterial attachment the best”.

On to `CCCCCCCCNC(=O)C(CCCN)NC(=O)CCCCCCC` (centres unmarked) [Compound 19, N-(5-amino-1-(octylamino)-1-oxopentan-2-yl)octanamide], for which, in assay [1], the “ability to prevent bacterial attachment” value is listed as “have the ability to prevent bacterial attachment” and the “preventing bacterial attachment the best” value is recorded as “preventing bacterial attachment the best”.

As to `CCCCCCCCCCCCCC(=O)NC(CCCNC(=N)N)C(=O)NCC` (centres unmarked) [Compound 20, N-(1-(ethylamino)-5-guanidino-1-oxopentan-2-yl)tetradecanamide], the “ability to prevent bacterial attachment” value in assay [1] is listed as “have the ability to prevent bacterial attachment”.

As for `CCCCCCCCNC(=O)C(CCCNC(=N)N)NC(=O)CCCCCCC` (centres unmarked) [Compound 21, N-(5-guanidino-1-(octylamino)-1-oxopentan-2-yl)octanamide], in assay [1], the “ability to prevent bacterial attachment” value was “have the ability to prevent bacterial attachment” and the “preventing bacterial attachment the best” value is listed as “preventing bacterial attachment the best”.

With `CCCCCCCCCCCC(=O)NC(CCCNC(=N)N)C(=O)NCCCCCCCC` (centres unmarked) [Compound 22, N-(5-guanidino-1-(octylamino)-1-oxopentan-2-yl)dodecanamide], in assay [1], the “ability to prevent bacterial attachment” value is on record as “have the ability to prevent bacterial attachment” and the “preventing bacterial attachment the best” value is on record as “preventing bacterial attachment the best”.

In the case of `CCCCCCCCCCCC(=O)NC(CCCNC(=N)N)C(=O)NCCCCCCCCCC` (centres unmarked) [Compound 23, N-(1-(decylamino)-5-guanidino-1-oxopentan-2-yl)dodecanamide], in assay [1], the “ability to prevent bacterial attachment” value is reported as “have the ability to prevent bacterial attachment”.

As for `CCCCCCCCCC(=O)NC(CCCNC(=N)N)C(=O)NCC` (centres unmarked) [Compound 24, N-(1-(ethylamino)-5-guanidino-1-oxopentan-2-yl)decanamide], the “ability to prevent bacterial attachment” value in assay [1] is “have the ability to prevent bacterial attachment”.

Turning to `CCCCCCCCCCCNC(=O)C(CCCNC(=N)N)NC(=O)CCCCCCCCCCC` (centres unmarked) [Compound 25, N-(5-guanidino-1-oxo-1-(undecylamino)pentan-2-yl)dodecanamide], in assay [1], the “ability to prevent bacterial attachment” value is “have the ability to prevent bacterial attachment”.

For the compound `CCCCCCCCCCCNC(=O)C(CCCNC(=N)N)NC(=O)CCCCCCC` (centres unmarked) [Compound 26, N-(5-guanidino-1-oxo-1-(undecylamino)pentan-2-yl)octanamide], in assay [1], the “ability to prevent bacterial attachment” value was “have the ability to prevent bacterial attachment” and the “preventing bacterial attachment the best” value is listed as “preventing bacterial attachment the best”.

Regarding “[amino({[4-dodecanamido-4-(methylcarbamoyl)butyl]amino})methylidene]azanium [Compound 4]”, the “ability to prevent bacterial attachment” value in assay [1] was “have the ability to prevent bacterial attachment”. For the same compound, the “log reduction in S. mutans” value with S. mutans biofilm is recorded as “do not Result in More than a One Log Reduction in S. mutans”.

(Values after patent US11820729B2 (Johnson & Johnson Consumer Inc., priority 2014, dated 2023).)
